According to patent US12576083B2, “Combinational therapy of LSD1 inhibitors with P21 activators in the treatment of cancer” (Istituto Europeo di Oncologia S.r.l., priority 2017, dated 2026):

System: p21
Experiment: p21 expression in NB4 cells treated with HDAC inhibitors
Assay type: cell-based
Conditions: with p21-shRNA or scramble shRNA
Method: FIGS. 9A-9C. […] (FIG. 9B) NB4 cells were infected with SCR (control) or P21 shRNA, and knockdown was monitored by qPCR. Values are normalized against GAPDH. (FIG. 9C) Monitoring of p21 expression upon the indicated treatments. (SCR=Scramble shRNA, NI=Not Infected, HDACi=HDAC inhibitor=SAHA or TSA).
NB4 cells were treated with HDAC inhibitors, trichostatin A (TSA) and suberoylanilide hydroxamic acid (SAHA), in combination with p21-shRNA or scramble shRNA (SCR). NB4 cells with p21 knock-down without HDAC inhibitor treatment (p21KD-DMSO), NB4 cells without p21 knock-down and without HDAC inhibitor treatment (Scr-DMSO), untreated UF1 cells (UF1-DMSO) were included as control.

Structure (SMILES)	p21 expression in NB4 cells
CC(/C=C/C(=O)NO)=C\[C@@H](C)C(=O)c1ccc(N(C)C)cc1 [TSA, trichostatin A]	induced p21 expression
O=C(CCCCCCC(=O)Nc1ccccc1)NO [SAHA, suberoylanilide hydroxamic acid]	induced p21 expression
